# Key:
# [1] = In vitro plasma stability of payload compounds; assay type: in vitro ADME, Human; settings: 5 µM, 37°C
# Procedure: (§1) 398 µL of plasma was taken and preheated to 37°C, then co-incubated for 15 minutes. 2 µL of the sample solution was added to the plasma to prepare a final sample concentration of 5 µM. The above solution was co-incubated at 37°C, and 50 µL aliquots were taken at 0, 15, 30, 60, and 120 minutes, followed by the addition of 450 µL of ice-cold acetonitrile (containing the internal standard). The solution was vortexed for 10 minutes, centrifuged, and the remaining content of the parent substrate was detected by the LC-MS/MS method. For specific results, refer to Table 4-1. Table 4-1. Plasma stability of the payload compounds of the present disclosure
# [2] = Repeated dose toxicity experiment of payload compounds in rats; assay type: in vivo, SD rats; settings: for Body weight and food consumption: 0.3 mg/kg and 1.0 mg/kg, 7 consecutive days; for animals showed immediate ataxia after administration / rats died during recovery (of the animals with ataxia): tail vein injection for 7 consecutive days; for animals showed immediate ataxia after administration: main experimental group + TK group
# Procedure: Test sample preparation: The test sample was weighed according to the predetermined weight into a glass vial. First, 1 mL of DMSO was added and mixed until the test sample was dissolved, followed by the addition of 1 mL of Solutol HS-15. After mixing thoroughly, 8 mL of sodium chloride injection was added and vortex-mixed to obtain a clear and transparent solution.
# SD rats (purchased from Beijing Vital River) were used as test animals. […] During the acclimation period, one cage-side observation was conducted daily; during the dosing period, all animals were subjected to clinical observations twice daily (morning and afternoon). Reactions in various aspects, including the skin, fur, eyes (sclera), ears, nose, oral cavity, chest, abdomen, urogenital area, limbs, as well as respiration, movement, urination, defecation (including urine and feces color), and behavioral changes, were recorded. Daily weight data of the main test group animals were documented. For animals scheduled for dissection, terminal body weight (fasted) was measured prior to dissection. The food intake of the test animals was also recorded. Table 6-1. Results of repeated dose toxicity experiments of the payload compounds of the present disclosure in rats
# At the end of the administration, gross dissection was performed on D8 after the administration.
# [3] = In vitro plasma stability of payload compounds; assay type: in vitro ADME, CD1 mouse; settings: 5 µM, 37°C
# Procedure: as §1
Structure (SMILES),Residual content of parent payload at 120 minutes (relative to 0 minutes) Human plasma [1],Body weight and food consumption [2],animals showed immediate ataxia after administration ([2]; 0.3 mpk dose group),animals showed immediate ataxia after administration ([2]; 1 mpk dose group),"average food consumption ([2]; ♀ rats, at the same dose, versus control (Dxd) group)",Residual content of parent payload at 120 minutes (relative to 0 minutes) CD1 mouse plasma [3],rats died during recovery (of the animals with ataxia) ([2]; 0.3 mpk dose group),rats died during recovery (of the animals with ataxia) ([2]; 1 mpk dose group)
[2H]C1([2H])OC(=O)[C@](O)(CC)c2cc3n(c(=O)c21)Cc1c-3nc2cc(F)c(C)c3c2c1[C@@H](NC(=O)CO)CC3 [Compound 2],111.04%,"At the same dose, the effects of compound 2 and Dxd on rat body weight and food consumption were essentially comparable;","compound 2: 0.3 mpk dose group: 13% (2/16) of animals showed immediate ataxia after administration, followed by gradual recovery;","compound 2: 1 mpk dose group: 25% (4/16) of animals showed immediate ataxia after administration, followed by gradual recovery;","for ♀ rats, at the same dose, the average food consumption of the compound 2 group was higher than that of the control group;",102.54%,–,–
[2H]C1([2H])OC(=O)[C@](O)(CC)c2cc3n(c(=O)c21)Cc1c-3nc2cc(F)c(C)c3c2c1[C@@H](NC(=O)[C@H](O)C1CC1)CC3 [Compound 3],105.54%,–,–,–,–,104.97%,–,–
[2H]C1([2H])OC(=O)[C@](O)(CC)c2cc3n(c(=O)c21)Cc1c-3nc2cc(F)c(C)c3c2c1[C@@H](NC(=O)C[C@@H](C)O)CC3 [Compound 5],107.73%,–,–,–,–,96.02%,–,–
[2H]C1([2H])OC(=O)[C@](O)(CC)c2cc3n(c(=O)c21)Cc1c-3nc2cc(F)c(C)c3c2c1[C@@H](NC(=O)C[C@H](C)O)CC3 [Compound 6],94.89%,–,–,–,–,105.93%,–,–
CC[C@@]1(O)C(=O)OCc2c1cc1n(c2=O)Cc2c-1nc1cc(F)c(C)c3c1c2[C@@H](NC(=O)CO)CC3 [Dxd],87.57%,Slow/decreased body weight gain; decreased food consumption;,31%,31%,–,95.42%,40%,40%

# Source: EP4810061A1, “DEUTERATED CAMPTOTHECIN COMPOUND, AND PREPARATION AND USE THEREOF” (Shanghai Qilu Pharmaceutical Research and Development …, priority 2023, dated 2025)
